Measurements as given in US20210332024A1, “MODULATORS OF PIN1 ACTIVITY AND USES THEREOF” (Yeda Research and Development Co. Ltd., priority 2019, published 2021).

Assays:
[1] = target: T1, catalytic domain of Pin1 (Homo sapiens, UniProt Q13526); assay: Intact protein LC/MS labeling of Pin1; assay type: binding
T1 construct: The purified catalytic domain of Pin1 was incubated with the fragment library
Protocol: 993 compounds were transferred to a 384-well plate working copy by combining 0.5 μl of 20 mM stock solution of four or five compounds per well. The catalytic domain of Pin1 (2 μM) in 20 mM Tris, 75 mM NaCl, pH 7.5 was incubated with 200 μM for each compound and moderately shaken for 24 hours at 4° C. The reaction was stopped by the addition of formic acid to 0.4% (v/v) final concentration.
Liquid chromatography/mass spectroscopy runs were performed on an Acquity™ UPLC® H-class system (Waters) in positive ion mode using electrospray ionization (ESI). UPLC separation was performed on a C4 column (300 Å, 1.7 μM, […]). The column was held at 40° C., and the autosampler at 10° C. Mobile solution A was 0.1% formic acid in water and mobile phase B was 0.1% formic acid in acetonitrile. Run flow was 0.4 ml/minute; and a gradient of 20% B for 2 minutes, increasing linearly to 60% B for 3 minutes, holding at 60% B for 1.5 minutes, changing to 0% B in 0.1 minute and holding at 0% for 1.4 minutes, was used. Desolvation temperature was 500° C. with a flow rate of 1000 liters/hour. The capillary voltage was 0.69 kV and cone voltage 46 V. Raw data was processed using OpenLynx™ software and deconvoluted using the MaxEnt tool. Labeling assignment was performed as described in Resnick et al. [J Am Chem Soc 2019, 141:8951-8968].
For the screening 2 μl of each of the 448 click products as 50 μM DMSO stocks were transferred into a 384-well plate working plate. 48 μl of catalytic domain of Pin1 (2 μM) in 20 mM Tris (pH 7.5) with 75 mM NaCl were added and moderately shaken and incubated for 15 minutes at room temperature. The reaction was stopped by the addition of formic acid to 0.4% (v/v) final concentration (20 μl). The mixtures were analyzed by liquid chromatography/mass spectroscopy analogously to the electrophile library incubations described herein. Hits were retrospectively analyzed by liquid chromatography/mass spectroscopy (LC-MS) to ensure reaction completion.
For each measured well, processed peaks were searched to match the mass of unlabeled protein or common small adducts of the unlabeled protein, which were found in the control sample or labeled protein. Labeling percentage for a compound was determined as the labeling of a specific compound divided by the overall detected protein species. Peaks whose mass could not be assigned were discarded from the overall labeling calculation. Data was analyzed using a python script for processing the MaxEnt-deconvoluted spectra. Peaks were normalized from ion counts to percentages, where the highest peak is defined as 100%. The unlabeled protein mass is deduced from a reference well that contains just the protein.
The purified catalytic domain of Pin1 was incubated with the fragment library (2 μM protein, 200 μM compound; 24 hours at 4° C.), followed by intact protein liquid chromatography/mass-spectrometry (LC/MS) to identify and quantify compound labeling. FIG. 1 depicts an example of a compound identified in this manner.
Based on the docking predictions, a total of 26 compounds that featured a range of small or bulky aliphatic, arylic, biphenylic or heterocyclic side-chains (structures depicted in FIG. 5), were synthesized or purchased. In order to identify potent binders, the irreversible labeling efficiency of these second-generation compounds was assessed alongside the original screening hits under more stringent conditions, with a 1:1 ratio of protein to compound (2 μM compound; 1 hour at room temperature).
For further optimization of the lipophilic moiety, an alkyne side chain-bearing analog was prepared, which was derivatized with 448 different azides using copper-catalyzed azide-alkyne cycloaddition (CuAAC).

[2] = tested on: cysteine residues on a proteome-wide scale, PATU-8988T cells; assay: CITe-Id chemoproteomic selectivity experiment; assay type: cell-based; details: PATU-8988T cells, 100, 500 or 1000 nM for 5 hours
Protocol: In order to profile the selectivity of Pin1-3, a Covalent Inhibitor Target-site Identification (CITe-Id) experiment [Browne et al., […] 2019, 141, 191-203] was performed, as depicted in FIG. 28.
This chemoproteomic platform enables the identification and quantification of the dose-dependent binding of covalent inhibitors to cysteine residues on a proteome-wide scale. In this competition experiment, live PATU-8988T cells were incubated with Pin1-3 (100, 500 or 1000 nM) for 5 hours, followed by cell lysis and co-incubation with Pin1-3-DTB (2 μM) for 18 hours. Following trypsin digest and avidin enrichment, the DTB-modified peptides were analyzed by shotgun LC-MS/MS.

[3] = tested on: PC3 prostate cancer cells; assay: Prolonged-treatment cell growth, PC3; assay type: cell-based; details: PC3, 1 or 2.5 μM
Protocol: The ability of Pin1-3 treatment to induce more pronounced anti-proliferative effects after prolonged treatment (6-8 days) was then assessed. In order to ensure that target engagement was maintained for the duration of the experiment, Pin1-3 was replenished in fresh media every 48 hours.

[4] = tested on: wild-type 8988T pancreatic cancer cells; assay: Organoid growth in Matrigel, wild-type PATU-8988T; assay type: cell-based; details: 1 μM, 9 days
Protocol: As three dimensional (3D) organoid models can reflect in vivo results better than monolayer cell culture [Baker et al., Trends Cancer Res 2016, 2:176-190], the anti-proliferative activity of Pin1-3 in PATU-8988T was further evaluated in wild-type or Pin1-knockout cells grown as organoids in Matrigel™ droplets. Cells were treated for 9 days with Pin1-3 (or Pin1-3-AcA or vehicle as a control), replenishing the compound in media every 3 days.

[5] = tested on: germinal centers; assay: Germinal center size after NP-OVA immunization; assay type: in vivo, mice; details: IP 40 mg/kg on days 7 and 9 post immunization, day 11
Protocol: 12 wild-type mice were immunized with OVA coupled to the hapten 4-hydroxy-3-nitrophenylacetyl (NP-OVA) precipitated in alum. The mice were injected with two doses of Pin1-3 (IP; 40 mg/kg) or vehicle on days 7 and 9 post immunization, and on day 11 the mice were sacrificed and germinal centers size was assessed in lymph nodes by flow cytometry.

[6] = tested on: KPC mouse derived tumor cells; assay: KPC orthotopic transplantation mouse model; assay type: in vivo, mice; details: IP 20 or 40 mg/kg every day
Protocol: 10^6 KPC (KrasLSL.G12D/+; p53R172H/+; PdxCretg/+) mouse derived tumor cells were transplanted into B6 mice pancreas (orthotopic transplantation). After 1 week of the transplantation, treatment of mice with Pin1-3 began. Mice were treated (IP) with Pin1-3 diluted solution (as a control), or 20 or 40 mg/kg every day. Tumor size was measured, and when the tumor size in control group reached 2 cm, mice were sacrificed to collect tumor tissue (n=4), and Kaplan-Meier survival analysis (n=8) was performed.

T1 sequence (Q13526 52-163 limits assumed): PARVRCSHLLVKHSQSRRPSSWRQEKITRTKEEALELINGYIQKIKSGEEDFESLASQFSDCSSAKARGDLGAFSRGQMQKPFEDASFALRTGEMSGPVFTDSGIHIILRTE

Q: Which “Labeling [%]” value ([1]; 2 μM Pin1 with 2 μM test compound for 15 minutes at room temperature) does the source give for `CC(C)(C)CN(C(=O)CCl)C1CCS(=O)(=O)C1` (centres unmarked) [Pin1-3, 2-chloro-N-(sulfolan-3-yl)-N-neopentylacetamide] here?
A: 10%

Q: And the “Labeling [%]” value ([1]; 2 μM Pin1 with 2 μM test compound for 1 hour at room temperature)?
A: 48%

Q: What about the “Dose-dependent competition among 162 cysteine residues labeled by Pin1-3-DTB” value [2] of the same molecule?
A: only Pin1 Cys113 exhibited dose-dependent competition

Q: What about the Cell growth [3] of the same molecule?
A: long-term inhibition

Q: And the Organoid growth [4]?
A: significantly retarded organoid growth

Q: What about the “Germinal centers size (FAS^Hi CD38^− GC cells, flow cytometry)” value [5] of the same molecule?
A: significantly larger germinal centers

Q: What about the KPC tumor growth [6] of the same molecule?
A: inhibited KPC tumor growth

Q: What about the “Survival (Kaplan-Meier)” value [6] of the same molecule?
A: enhanced survival
